Patent US6066633A, “Metalloproteinase inhibitors” (Adir et Compagnie, priority 1997, dated 2000)
Where a name gives a salt, the structure may show the parent alone.

Legend:
[1] = biological target: MMP-9 (92 kDa gelatinase B) (Homo sapiens, UniProt P14780); assay: Enzymatic Inhibition of Metalloproteinases (MMP-9); format: biochemical; details: 20 μM substrate, pH 7.7, 37° C., six hours; read-out: IC50 for the enzyme MMP-9
Method: (§1) Enzymatic Inhibition of Metalloproteinases
(§2) Four recombinant human enzymes MMP-1 (interstitial collagenase), MMP-2 (72 kDa gelatinase A), MMP-3 (stromelysin 1) and MMP-9 (92 kDa gelatinase B) are activated with APMA (4-aminophenylmercuric acetate).
(§3) The enzymatic tests are carried out using a peptido-mimetic substrate:
(§4) DnpProChaGlyCys(Me)HisAlaLys(Nma)NH2,
(§5) which is cleaved between the glycine and the cysteine to yield a fluorescent derivative (Anal. Biochem., 212, 58-64, 1993).
(§6) The reactions, carried out in a buffer of 50 mM Tris, 200 mM NaCl, 5 mM CaCl2, 0.1% Brij 35 at pH 7.7, are initiated using 20 μM substrate in a total volume of 100 μl at 37° C. The fluorescence obtained after six hours is read in a 96-well plate in a fluorimeter equipped with a combination of 340 nm and 400 nm filters for excitation and emission.

[2] = biological target: T1, MMP-2 (72 kDa gelatinase A) (Homo sapiens, UniProt P08253); assay: Enzymatic Inhibition of Metalloproteinases (MMP-2); format: biochemical; details: 20 μM substrate, pH 7.7, 37° C., six hours; read-out: IC50 for the enzyme MMP-2
T1 sequence (P08253 110-660): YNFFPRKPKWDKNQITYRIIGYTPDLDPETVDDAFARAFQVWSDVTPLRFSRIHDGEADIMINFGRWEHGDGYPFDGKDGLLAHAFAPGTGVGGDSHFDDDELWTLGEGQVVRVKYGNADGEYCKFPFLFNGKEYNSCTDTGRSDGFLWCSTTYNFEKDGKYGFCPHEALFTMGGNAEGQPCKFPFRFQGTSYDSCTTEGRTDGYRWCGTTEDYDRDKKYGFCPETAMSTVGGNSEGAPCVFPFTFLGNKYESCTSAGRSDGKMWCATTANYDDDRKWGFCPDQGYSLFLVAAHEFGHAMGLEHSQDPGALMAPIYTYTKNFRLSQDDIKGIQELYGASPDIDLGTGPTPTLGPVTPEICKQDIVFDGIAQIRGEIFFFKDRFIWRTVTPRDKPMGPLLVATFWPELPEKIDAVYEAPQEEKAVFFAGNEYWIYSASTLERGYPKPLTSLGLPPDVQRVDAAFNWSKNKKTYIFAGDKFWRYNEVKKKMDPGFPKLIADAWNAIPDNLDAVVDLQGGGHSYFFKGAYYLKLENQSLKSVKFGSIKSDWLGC
Method: as §1, §2, §3, §4, §5, §6

MMP-3 (stromelysin 1) = MMP-3 (stromelysin 1) (Homo sapiens, UniProt P08254); assay: Enzymatic Inhibition of Metalloproteinases (MMP-3); format: biochemical; details: 20 μM substrate, pH 7.7, 37° C., six hours; read-out: IC50 for the enzyme MMP-3
MMP-3 (stromelysin 1), sequence (P08254 100-477): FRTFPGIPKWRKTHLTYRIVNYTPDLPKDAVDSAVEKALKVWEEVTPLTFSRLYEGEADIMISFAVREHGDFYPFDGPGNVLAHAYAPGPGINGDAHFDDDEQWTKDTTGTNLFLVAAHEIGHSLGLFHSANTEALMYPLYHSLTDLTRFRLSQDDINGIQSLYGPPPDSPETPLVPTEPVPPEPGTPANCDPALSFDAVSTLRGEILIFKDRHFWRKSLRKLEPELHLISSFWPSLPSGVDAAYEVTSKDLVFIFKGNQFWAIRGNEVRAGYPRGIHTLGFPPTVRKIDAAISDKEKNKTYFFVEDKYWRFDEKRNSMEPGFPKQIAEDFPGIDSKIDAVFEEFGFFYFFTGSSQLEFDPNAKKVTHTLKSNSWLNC
Method: as §1, §2, §3, §4, §5, §6

[3] = system: neovascularisation (pseudo-vessels) from portions of thoracic aorta; assay: In Vitro Angiogenesis (thoracic aorta portions in type I collagen gel); format: cell-based, male Fischer 344 rats; details: Rattus norvegicus, 120 h, five days of culture in a medium without serum, vascular density
Text: Portions of thoracic aorta of male Fischer 344 rats aged from 8 to 12 weeks are immersed in a type I collagen gel according to the method of Nicosia et Ottinetti (1990). After five days of culture in a medium without serum, the preparations are examined using a microscope and the formation of pseudo-vessels is quantified in terms of vascular density after digitisation and image analysis.

ovarian cancers = details: Becket et al., DDT 1996, 1 (1), 16; cited from earlier work
[4] = biological target: T2, MMP-1 (interstitial collagenase) (Homo sapiens, UniProt P03956); assay: Enzymatic Inhibition of Metalloproteinases (MMP-1); format: biochemical; details: 20 μM substrate, pH 7.7, 37° C., six hours; read-out: IC50 for the enzyme MMP-1
T2 sequence (P03956 100-469): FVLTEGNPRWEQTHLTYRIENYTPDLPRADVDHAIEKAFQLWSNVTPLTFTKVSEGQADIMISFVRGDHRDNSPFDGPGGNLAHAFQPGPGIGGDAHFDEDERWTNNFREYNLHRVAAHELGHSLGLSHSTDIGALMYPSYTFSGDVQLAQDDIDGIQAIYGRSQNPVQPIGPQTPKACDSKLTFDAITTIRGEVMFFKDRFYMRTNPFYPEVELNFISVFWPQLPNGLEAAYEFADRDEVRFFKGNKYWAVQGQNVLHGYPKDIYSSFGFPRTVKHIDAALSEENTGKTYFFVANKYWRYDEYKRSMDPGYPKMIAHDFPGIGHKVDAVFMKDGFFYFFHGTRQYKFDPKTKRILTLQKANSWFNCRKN
Method: as §1, §2, §3, §4, §5, §6

MMP-9 (92 kDa gelatinase B), sequence (P14780 107-707 limits assumed): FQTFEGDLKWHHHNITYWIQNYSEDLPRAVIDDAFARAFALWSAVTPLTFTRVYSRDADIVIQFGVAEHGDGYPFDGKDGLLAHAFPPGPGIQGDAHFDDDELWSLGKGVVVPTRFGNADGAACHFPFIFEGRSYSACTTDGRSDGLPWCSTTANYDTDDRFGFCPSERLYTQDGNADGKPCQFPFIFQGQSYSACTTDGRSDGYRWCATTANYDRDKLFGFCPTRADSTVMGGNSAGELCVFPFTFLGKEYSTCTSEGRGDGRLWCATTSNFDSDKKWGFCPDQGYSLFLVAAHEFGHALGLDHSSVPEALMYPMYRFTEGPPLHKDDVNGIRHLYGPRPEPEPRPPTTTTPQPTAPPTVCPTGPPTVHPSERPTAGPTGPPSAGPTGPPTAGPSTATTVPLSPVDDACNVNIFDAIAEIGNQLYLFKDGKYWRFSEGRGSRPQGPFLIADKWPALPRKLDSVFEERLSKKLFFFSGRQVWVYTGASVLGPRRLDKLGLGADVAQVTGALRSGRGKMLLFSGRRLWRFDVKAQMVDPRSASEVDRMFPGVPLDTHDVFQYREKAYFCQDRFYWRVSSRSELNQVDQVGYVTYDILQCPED

Which results are given for `COc1ccc(S(=O)(=O)N2Cc3c(c4ccccc4n3CC(=O)NCCSCCN3CCOCC3)C[C@@H]2C(=O)NO)cc1` [Example 11, 2-[(4-Methoxyphenyl)sulphonyl]-9-{[2-(2-morpholin-4-ylethylsulphanyl)ethylcarbamoyl]methyl}-2,3,4,9-tetrahydro-1H-β-carboline-(3R)-(N-hydroxy)carboxamide Hydrochloride]?
IC50 [1]: 0.1 nM; IC50 [2]: 1.6 nM; IC50 (MMP-3 (stromelysin 1)): 3.1 nM

For `COc1ccc(S(=O)(=O)N2Cc3c(c4ccccc4n3CC(=O)NCCSCCCN3CCOCC3)C[C@@H]2C(=O)NO)cc1` [Example 13, 2-[(4-Methoxyphenyl)sulphonyl]-9-{[2-(3-morpholin-4-ylpropylsulphanyl)ethylcarbamoyl]methyl}-2,3,4,9-tetrahydro-1H-β-carboline-(3R)-(N-hydroxy)carboxamide Hydrochloride], which inhibition at 1 µM [3] is on record?
Its inhibition at 1 µM is 50 to 100%.

Which “anti-tumour activity in clinical use” value (ovarian cancers) does the source give for `CNC(=O)C(Cc1ccccc1)NC(=O)C(CC(C)C)C(CSc1cccs1)C(=O)NO` (centres unmarked) [BB94] here?
The value was “active in ovarian cancers”.

For `COc1ccc(S(=O)(=O)N2Cc3c(c4ccccc4n3CC(=O)N(C)CCN3CCOCC3)C[C@@H]2C(=O)NO)cc1` [Example 15, 2-[(4-Methoxyphenyl)sulphonyl]-9-[N-methyl-(2-morpholin-4-ylethylcarbamoyl)methyl]-2,3,4,9-tetrahydro-1H-β-carboline-(3R)-(N-hydroxy)carboxamide Hydrochloride], which inhibition at 1 µM [3] is on record?
The inhibition at 1 µM was 50 to 100%.

For `COc1ccc(S(=O)(=O)N2Cc3c(c4ccccc4n3CC(=O)NCCN3CCOCC3)C[C@@H]2C(=O)NO)cc1` [Example 2, 2-[(4-Methoxyphenyl)sulphonyl]-9-[(2-morpholin-4-ylethylcarbamoyl)methyl]-2,3,4,9-tetrahydro-1H-β-carboline-(3R)-(N-hydroxy)carboxamide Acetate], which IC50 [4] is on record?
Its IC50 is 32.6 nM.

What about the inhibition at 1 µM [3] of the same compound?
The inhibition at 1 µM was 50 to 100%.
